This is an account of results in patent US7897625B2, “Carbamoylbenzotriazole derivatives as inhibitors of lipases and phospholipases” (Sanofi-Aventis, priority 2005, dated 2011).

Each structure is given as a SMILES string.

This test has as its target T1, Endothelial lipase (Homo sapiens, UniProt Q9Y5X9).
T1 construct: made in house; host or cells: CHO, HEK293 (recombinant cell lines; concentrated conditioned medium used as enzyme solution)
T1 sequence (Q9Y5X9 21-500): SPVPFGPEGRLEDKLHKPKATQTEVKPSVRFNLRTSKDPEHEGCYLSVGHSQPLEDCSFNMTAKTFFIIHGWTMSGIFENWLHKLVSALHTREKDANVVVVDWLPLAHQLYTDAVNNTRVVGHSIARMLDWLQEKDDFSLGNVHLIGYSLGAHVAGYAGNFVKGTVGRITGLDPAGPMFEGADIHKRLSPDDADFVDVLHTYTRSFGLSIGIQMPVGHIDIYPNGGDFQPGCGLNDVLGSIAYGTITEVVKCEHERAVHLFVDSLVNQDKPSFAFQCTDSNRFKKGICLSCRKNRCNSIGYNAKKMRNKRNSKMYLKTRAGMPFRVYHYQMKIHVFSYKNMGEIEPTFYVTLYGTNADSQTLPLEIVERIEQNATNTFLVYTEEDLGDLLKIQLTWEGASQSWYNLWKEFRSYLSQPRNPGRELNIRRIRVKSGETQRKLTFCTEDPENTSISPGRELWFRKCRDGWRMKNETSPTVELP
Nature of the test: EL inhibition assay. In kind it is biochemical. To be noted: values marked * are IC50 values of a mixture of the indicated regioisomers; 37° C., 60 minutes, Bodipy phospholipid substrate. As for the experimental part: The activity of the compounds of the invention of the formula I was tested in the following enzyme assay system: […]
Endothelial lipase is released as secretory protein in high concentration into cell culture medium (conditioned medium) by recombinant cell lines (CHO, HEK293). This is employed as enzyme solution after concentration.
The phospholipase-specific substrate 1,2-bis(4,4-difluoro-5,7-dimethyl-4-bora-3a,4a-diaza-s-indacene-3-undecanoyl)-sn-glycero-3-phosphocholine, (manufacturer Molecular Probes) is used to characterize the enzymatic activity of endothelial lipase and the effect of inhibitors. Hydrolysis of the A1 ester linkage of this phospholipid by the enzyme liberates the fluorescent dye Bodipy which can be detected after separation by thin-layer chromatography on an HPTLC plate (silica gel 60, Merck) or directly in the reaction vessel by measuring the fluorescence.
The substrate solution is prepared by taking up 100 μg of 1,2-bis(4,4-difluoro-5,7-dimethyl-4-bora-3a,4a-diaza-s-indacene-3-undecanoyl)-sn-glycero-3-phospho-choline (manufacturer Molecular Probes), 2.4 mg of tripalmitin (Sigma) and 7.9 mg of DOP—choline (1,2-dioleoyl-sn-glycero-3-phosphocholine) in 393 μl of chloroform and then transferring 157 μl into a fresh reaction vessel. After evaporation of the solvent, the lipid mixture is dissolved in 4 ml of 200 mM TRIS-HCl, 150 mM sodium chloride, pH=7.4, by sonication twice. The subsequent enzymic reaction takes place at 37° C. for 60 minutes. For this purpose, 45 μl of the substrate solution are incubated with 1 μl of inhibitor of appropriate concentration (dissolved in DMSO, pure DMSO solution is used as control) and 5 μl of enzyme solution (conditioned medium). Then 3 μl of the assay mixture are loaded onto an HPTLC plate (silica gel 60, Merck), and the liberated fluorescent dye is separated for detection with an eluent (diethyl ether:petroleum benzene:acetic acid [78:22:1]). After evaporation of the eluent, the plate is read in a fluorescence scanner. An increased release of the fluorescent dye in the uninhibited reaction is to be observed as a measure of the enzymic activity.
The enzymatic activity is reduced as a function of the inhibitor concentration used, and the inhibitor concentration at which a half-maximum enzymic activity is observed is called IC50.

As for `Cc1cccc(CNC(=O)n2nnc3ccccc32)c1` [Example 1], the IC50 is 20 nM. For `Cc1ccsc1CNC(=O)n1nnc2ccccc21` [Example 9], the IC50 came to 80 nM. As to `N#Cc1ccc2sc(CNC(=O)n3nnc4ccccc43)cc2c1` [Example 10], the concentration for half-maximal inhibition (IC50) is 510 nM.

As for `O=C(NCc1ccc(-c2cccs2)s1)n1nnc2ccccc21` [Example 15], the 50% inhibitory concentration (IC50) stood at 520 nM. The same measure for `C[C@@H](NC(=O)n1nnc2ccccc21)c1ccccc1` [Example 23]: 31 nM. As to `O=C(NCc1ccc(Cl)cc1)n1nnc2ccccc21` [Example 28], the half-maximal inhibitory concentration (IC50) amounted to 440 nM. In the case of `C[C@H](NC(=O)n1nnc2ccccc21)c1ccccc1` [Example 36], the IC50 stood at 710 nM.
